This experiment concerns the target T1, IP receptor (Homo sapiens, UniProt P43119).
T1 construct: expressed in transfected cells; host or cells: CHO cells stably expressing the IP receptor (CHO-IP)
Briefly: cAMP accumulation in CHO cells stably expressing the IP receptor (CHO-IP), Perkin Elmer AlphaScreen assay. As to conditions: agonist activity, 1 hour at room temperature. The format is cell-based. How it is done: Activity of compounds at the IP receptor (IP receptor) is assessed by measuring cAMP accumulation in CHO cells stably expressing the IP receptor (CHO-IP) using the Perkin Elmer AlphaScreen assay. This technology measures the endogenous production of cAMP, in a non-radioactive luminescence proximity homogenous assay. A biological reaction occurs between streptavidin coated donor beads, biotinylated cAMP and anti-cAMP acceptor beads, bringing the donor and acceptor beads close enough together so that upon excitation a fluorescence signal is produced. On production of endogenous cAMP, competition between the biotinylated cAMP and cellular-derived cAMP causes a reduction in the fluorescent signal. The reduction in signal is proportional to the amount of cAMP being produced, thus it is possible to quantify the amount of cAMP being produced on stimulation with agonist.
Test and reference compounds are prepared at 100× [final] in 100% DMSO, and diluted 1:3 using a Biomek Fx (Beckman Coulter). This is followed by an intermediate dilution to give 5× [final] in assay buffer (HBSS containing 5 mM HEPES, 0.1% (w/v) BSA). 5 μL of 5× [final] test compounds, reference compounds and buffer/DMSO control are then transferred to a 384-well white OptiPlate, containing 20 μL CHO-IP cell suspension (15,000 cells/well, prepared from frozen), and plate is incubated at room temperature for 1 hour. A cAMP standard curve is constructed for each experiment (concentration range of 10000 nM to 0.001 nM, in assay buffer) and 25 μL of each concentration added to the last two columns of the assay plate. The incubation is terminated by the addition of lysis buffer (dH2O; 0.3% (v v^−1) Tween-20) containing 20 units mL^−1 streptavidin coated donor beads and biotinylated cAMP (pre-incubated for 30 minutes) and 20 units mL^−1 anti-cAMP acceptor beads, which are added to the lysis buffer just before addition to the assay plate. The assay plate is then incubated at room temperature in the dark, for 60 minutes with gentle shaking, and read on the Envision plate reader (Perkin Elmer).
The raw data of the reference compounds, test compounds and controls are converted into cAMP concentrations, using the cAMP standard curve, in Graph Pad Prism (Graph Pad Software Inc). EC50 as well as maximal values of the agonist curves are determined using a 4-parameter logistic equation. The % maximum response values of all test compounds are determined using the top of the treprostinil concentration-response curve.

Drawing on US9115129B2, “Substituted pyrido[2,3-B]pyrazines as IP receptor agonists” (Novartis AG, priority 2012, dated 2015), this text covers EC50 for 24 molecules.

Broadly, the EC50 is the concentration at which the effect is half-maximal. A high value points to a need for much substance.

T1 sequence (P43119 whole entry): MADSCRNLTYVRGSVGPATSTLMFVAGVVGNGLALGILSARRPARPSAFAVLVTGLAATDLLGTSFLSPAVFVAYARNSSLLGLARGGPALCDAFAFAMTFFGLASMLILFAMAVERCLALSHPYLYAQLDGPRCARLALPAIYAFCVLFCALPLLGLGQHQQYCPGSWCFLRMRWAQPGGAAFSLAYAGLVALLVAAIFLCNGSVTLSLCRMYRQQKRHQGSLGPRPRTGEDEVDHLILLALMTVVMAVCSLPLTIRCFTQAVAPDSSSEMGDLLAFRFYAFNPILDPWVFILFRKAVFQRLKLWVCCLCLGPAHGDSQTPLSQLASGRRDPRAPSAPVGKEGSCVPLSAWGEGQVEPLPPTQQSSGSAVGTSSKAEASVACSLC

`Cc1ccc(-c2nc3c(nc2-c2ccc(C)cc2)N(CCCCCCC(=O)O)C(=O)C(O)C3)cc1` (single isomer, unassigned) [11(ii), (R)-7-(7-hydroxy-6-oxo-2,3-di-p-tolyl-7,8-dihydropyrido[2,3-b]pyrazin-5(6H)-yl) heptanoic acid or (S)-7-(7-hydroxy-6-oxo-2,3-di-p-tolyl-7,8-dihydropyrido[2,3-b]pyrazin-5(6H)-yl) heptanoic acid]: the EC50 stood at 0.5 nM.
As for `Cc1ccc(-c2nc3c(nc2-c2ccc(C)cc2)N(CCCCCCC(=O)O)C(=O)C(C(C)(C)O)C3)cc1` (single isomer, unassigned) [Example 1.1, rac-7-(7-(2-Hydroxypropan-2-yl)-6-oxo-2,3-di-p-tolyl-7,8-dihydropyrido[2,3-b]pyrazin-5(6H)-yl)heptanoic acid], the figure is 0.3 nM; as for `CO[C@@H]1CCN(CCCCCCC(=O)O)c2nc(-c3ccc(C)cc3)c(-c3ccc(C)cc3)nc21` (single isomer, unassigned) [Example 3.2, (R)-7-(8-methoxy-2,3-di-p-tolyl-7,8-dihydropyrido[2,3-b]pyrazin-5(6H)-yl)heptanoic acid or (S)-7-(8-methoxy-2,3-di-p-tolyl-7,8-dihydropyrido[2,3-b]pyrazin-5(6H)-yl)heptanoic acid], 13.6 nM.
As for `CO[C@@H]1CCN(CCCCCCC(=O)O)c2nc(-c3ccc(C)cc3)c(-c3ccc(C)cc3)nc21` (single isomer, unassigned) [Example 3.3, (R)-7-(8-methoxy-2,3-di-p-tolyl-7,8-dihydropyrido[2,3-b]pyrazin-5(6H)-yl)heptanoic acid or (S)-7-(8-methoxy-2,3-di-p-tolyl-7,8-dihydropyrido[2,3-b]pyrazin-5(6H)-yl)heptanoic acid], the figure is 2.3 nM; as for `Cc1ccc(-c2nc3c(nc2-c2ccc(C)cc2)N(CCCCCCC(=O)NS(C)(=O)=O)CCC3O)cc1` (single isomer, unassigned) [Example 13.1, (R or S)-7-(8-Hydroxy-2,3-di-p-tolyl-7,8-dihydropyrido[3,2-b]pyrazin-5(6H)-yl)-N-(methylsulfonyl)heptanamide], 28.6 nM; as for `Cc1ccc(-c2nc3c(nc2-c2ccc(C)cc2)N(CCCCCCC(=O)NS(=O)(=O)Cc2ccccc2)CCC3O)cc1` (single isomer, unassigned) [Example 13.2, (R)—N-(benzylsulfonyl)-7-(8-hydroxy-2,3-di-p-tolyl-7,8-dihydropyrido[3,2-b]pyrazin-5(6H)-yl)heptanamide or (S)—N-(benzylsulfonyl)-7-(8-hydroxy-2,3-di-p-tolyl-7,8-dihydropyrido[3,2-b]pyrazin-5(6H)-yl)heptanamide], 510 nM.
Consider `Cc1ccc(-c2nc3c(nc2-c2ccc(C)cc2)N(CCCCCCC(=O)NS(=O)(=O)Cc2ccccc2)CCC3O)cc1` (single isomer, unassigned) [Example 13.3, (R)—N-(benzylsulfonyl)-7-(8-hydroxy-2,3-di-p-tolyl-7,8-dihydropyrido[3,2-b]pyrazin-5(6H)-yl)heptanamide or (S)—N-(benzylsulfonyl)-7-(8-hydroxy-2,3-di-p-tolyl-7,8-dihydropyrido[3,2-b]pyrazin-5(6H)-yl)heptanamide], for which the response was half-maximal at 66.2 nM (EC50).
As for `COC1(C)CCN(CCCCCCC(=O)O)c2nc(-c3ccc(C)cc3)c(-c3ccc(C)cc3)nc21` (single isomer, unassigned) [Example 15a, (R)-7-(8-Methoxy-8-methyl-2,3-di-p-tolyl-7,8-dihydropyrido[2,3-b]pyrazin-5(6H)-yl)heptanoic acid or (S)-7-(8-Methoxy-8-methyl-2,3-di-p-tolyl-7,8-dihydropyrido[2,3-b]pyrazin-5(6H)-yl)heptanoic acid], the EC50 was 1.1 nM.
As for `COC1(C)CCN(CCCCCCC(=O)O)c2nc(-c3ccc(C)cc3)c(-c3ccc(C)cc3)nc21` (single isomer, unassigned) [Example 15b, (R)-7-(8-Methoxy-8-methyl-2,3-di-p-tolyl-7,8-dihydropyrido[2,3-b]pyrazin-5(6H)-yl)heptanoic acid or (S)-7-(8-Methoxy-8-methyl-2,3-di-p-tolyl-7,8-dihydropyrido[2,3-b]pyrazin-5(6H)-yl)heptanoic acid], the figure is 3.6 nM; as for `Cc1ccc(-c2nc3c(nc2-c2ccc(C)cc2)N(CCCC[C@@H](O)CC(=O)O)CCC3)cc1` (single isomer, unassigned) [Example 17a, (R)-7-(2,3-Di-p-tolyl-7,8-dihydropyrido[2,3-b]pyrazin-5(6H)-yl)-3-hydroxyheptanoic acid or (S)-7-(2,3-Di-p-tolyl-7,8-dihydropyrido[2,3-b]pyrazin-5(6H)-yl)-3-hydroxyheptanoic acid], 3.6 nM; as for `Cc1ccc(-c2nc3c(nc2-c2ccc(C)cc2)N(CCCCC(O)CC(=O)O)CCC3)cc1` (single isomer, unassigned) [Example 17b, (R)-7-(2,3-Di-p-tolyl-7,8-dihydropyrido[2,3-b]pyrazin-5(6H)-yl)-3-hydroxyheptanoic acid or (S)-7-(2,3-Di-p-tolyl-7,8-dihydropyrido[2,3-b]pyrazin-5(6H)-yl)-3-hydroxyheptanoic acid], 1.8 nM.
The molecule `Cc1ccc(-c2nc3c(nc2-c2ccc(C)cc2)N(CCCCCCCC(=O)O)C(=O)CC3)cc1` [Example 1.2, 8-(6-Oxo-2,3-di-p-tolyl-7,8-dihydropyrido[2,3-b]pyrazin-5(6H)-yl)octanoic acid] displayed a half-maximal effective concentration (EC50) of 1.9 nM.
Under `CCC1Cc2nc(-c3ccc(C)cc3)c(-c3ccc(C)cc3)nc2N(CCCCCCC(=O)O)C1` (stereo not drawn) [Example 2.1, 7-(7-Ethyl-2,3-di-p-tolyl-7,8-dihydropyrido[2,3-b]pyrazin-5(6H)-yl)heptanoic acid] stands 0.4 nM.
As for `Cc1ccc(-c2nc3c(nc2-c2ccccc2)CC(C)CN3CCCCCCC(=O)O)cc1` (stereo not drawn) [Example 2.2, 7-(7-Methyl-2-phenyl-3-(p-tolyl)-7,8-dihydropyrido[2,3-b]pyrazin-5(6H)-yl)heptanoic acid], the figure is 0.1 nM.
As for `Cc1ccc(-c2nc3c(nc2-c2ccccc2)CCC(C)N3CCCCCCC(=O)O)cc1` (stereo not drawn) [Example 2.4, 7-(6-Methyl-2-phenyl-3-p-tolyl-7,8-dihydropyrido[2,3-b]pyrazin-5(6H)-yl)heptanoic acid], the figure is 2.4 nM; as for `Cc1ccc(-c2nc3c(nc2-c2ccccc2C)N(CCCCCCC(=O)O)CCC3)cc1` [Example 2.5, 7-(3-o-Tolyl-2-p-tolyl-7,8-dihydropyrido[3,2-b]pyrazin-5(6H)-yl)heptanoic acid], 3.9 nM.
With `Cc1ccc(-c2nc3c(nc2-c2ccccc2C)CCCN3CCCCCCC(=O)O)cc1` [Example 2.6, 7-(2-o-Tolyl-3-p-tolyl-7,8-dihydropyrido[3,2-b]pyrazin-5(6H)-yl)heptanoic acid], a half-maximal effect (EC50) was put at 0.6 nM.
Under `Cc1ccc(-c2nc3c(nc2-c2ccccc2F)CCCN3CCCCCCC(=O)O)cc1` [Example 2.7, 7-(2-(2-Fluorophenyl)-3-p-tolyl-7,8-dihydropyrido[2,3-b]pyrazin-5(6H)-yl)heptanoic acid] stands 0.3 nM; under `Cc1ccc(-c2nc3c(nc2-c2ccc(F)cc2)CCCN3CCCCCCC(=O)O)cc1` [Example 2.8, 7-(2-(4-Fluorophenyl)-3-p-tolyl-7,8-dihydropyrido[2,3-b]pyrazin-5(6H)-yl)heptanoic acid], 0.4 nM; under `Cc1ccc(-c2nc3c(nc2-c2cccc(F)c2)CCCN3CCCCCCC(=O)O)cc1` [Example 2.9, 7-(2-(3-Fluorophenyl)-3-p-tolyl-7,8-dihydropyrido[2,3-b]pyrazin-5(6H)-yl)heptanoic acid], 0.1 nM.
As for `COc1ccc(-c2nc3c(nc2-c2ccc(C)cc2)N(CCCCCCC(=O)O)CCC3)cc1` [Example 2.10, 7-(2-(4-Methoxyphenyl)-3-p-tolyl-7,8-dihydropyrido[2,3-b]pyrazin-5(6H)-yl)heptanoic acid], the figure is 0.4 nM.
`O=C(O)CCCCCCN1CCCc2nc(-c3ccc(F)cc3F)c(-c3ccc(F)cc3F)nc21` [Example 4, 7-(2,3-Bis(2,4-difluorophenyl)-7,8-dihydropyrido[2,3-b]pyrazin-5(6H)-yl)heptanoic acid] returned an EC50 of 0.7 nM.
As for `Cc1ccc(-c2nc3c(nc2-c2ccc(C)nc2)N(CCCCCCC(=O)O)CCC3)cn1` [Example 5, 7-(2,3-Bis(6-methylpyridin-3-yl)-7,8-dihydropyrido[2,3-b]pyrazin-5(6H)-yl)heptanoic acid], the figure is 11.7 nM; as for `Cc1ccc(-c2nc3c(nc2-c2ccc(C)nc2)CCCN3CCCCCCC(=O)O)cc1` [Example 6, 7-(2-(6-Methylpyridin-3-yl)-3-p-tolyl-7,8-dihydropyrido[2,3-b]pyrazin-5(6H)-yl)heptanoic acid], 0.2 nM.
